Values of other authors as cited in patent US20260207574A1, “Pharmaceutical composition of pitolisant hydrochloride and Their Process for the preparation” (MSN Laboratories Private Limited, R & D Center, priority 2022, published 2026).
Where a name gives a salt, the structure may show the parent alone.

Key:
[1] = until 75% RH; as per EMA
[2] = leads to N-oxide derivative as main degradation product; as per EMA

Row | solubility in acetone (acetone) | solubility in cyclohexane (cyclohexane) | solubility in ethanol (ethanol) | solubility in methylene chloride (methylene chloride) | solubility in water (water) | solubility in water until pH 7.5 (water, until pH 7.5, as per EMA) | hygroscopicity [1] | Compound | sensitivity to oxidative conditions [2]
1 | freely soluble | practically insoluble | very soluble | very soluble | very soluble |  |  | Clc1ccc(CCCOCCCN2CCCCC2)cc1 [Pitolisant hydrochloride, 1-{3-[3-(4-chlorophenyl)propoxy]propyl} piperidine, hydrochloride] | 
2 |  |  |  |  |  | very soluble | not hygroscopic | Clc1ccc(CCCOCCCN2CCCCC2)cc1 [pitolisant] | sensitive to excessive oxidative conditions
